Among the data in PubChem BioAssay AID2060493 (Molecular Pharmacology Branch, DTP, NCI, 2025) are viability, T/C and IC50 values, retold here.

In this assay the test system is 616215-338-R-J1-PDC tumor spheroids, viability. As to the kind of experiment: Anticancer human tumor 616215-338-R-J1-PDC patient-derived colon adenocarcinoma cell line growth inhibition [GQUAD]. To be noted: spheroids with HUVEC and MSC; for viability, T/C: stronger effect = lower value. The essentials: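 Multi-cell-type spheroids of tumor cells with HUVEC and mesenchymal stem cells, treated with drug combinations. Concentrations descend in half-log steps from near clinical Cmax, or from 10 microM where Cmax is unknown; viability read-out.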

Structures are written as SMILES. Values joined by “and” are separate entries in the source; they are usually repeats but may differ in a detail not shown here. Equal entries are not always repeated.
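Also: spheroids exposed to agents for 7 days before readout.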
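For viability, T/C in this document: percent viability relative to DMSO vehicle control wells taken as 100%.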

Regarding `CC1COCCN1c1cc(C2(S(C)(=N)=O)CC2)nc(-c2ccnc3[nH]ccc23)n1` (configuration not stated), the viability, T/C (commonly the result in the treated group divided by that in the control group, in per cent) (compound 0.0316 µM) was 112% and 99% and 92.8%; the viability, T/C (compound 0.1 µM) is 102% and 101% and 90.8%; the viability, T/C (compound 0.316 µM) is 122% and 95% and 90%; the viability, T/C (compound 1 µM) is 94.4% and 94.6% and 92.2%; the viability, T/C (compound 3.16 µM) is 72.2% and 51.3% and 62.8%; the viability, T/C (compound 10 µM) is 36% and 28.3% and 34.5%. The IC50 (in general, the concentration that inhibits the measured activity by half) (curve of compound) was 6.34 µM and 3.38 µM and 5.33 µM.
